According to PMC9944328 (Nature Communications, 2023):
Read-outs that look alike come from different tables or passages of the source.

Tested on: SSTR2 mutants
Assay: SSTRs Gi-mediated cAMP inhibition, GloSensor, HEK293, 5 μM forskolin, 15 min room temperature (SSTR2 mutants)
Format: cell-based, human
Parameters: Best-fit Bottom, cAMP inhibition / Best-fit Top, cAMP inhibition / Span, cAMP inhibition / Bottom (best-fit value) / Top (best-fit value) / Span (best-fit value) / Span (best-fit) / Bottom (best-fit) / Top (best-fit) / Best-fit Bottom / Best-fit Top / Best-fit Span / Top / Span: scale not given here
Experimental: The levels of the intracellular 3′, 5′-cyclic AMP (cAMP) were measured by the GloSensor cAMP assay (Promega) as described in the previous studies[28],[41] which has been widely used. The human full-length SSTRs and mutants were cloned into the pcDNA3.1+ vector with a HA signal sequence followed by a Flag tag at the N-terminus. HEK293 cells (ATCC, CRL-1573) were seeded into 6-well microplates at a density of 1.0 × 10^6 cells/well and cultured for 24 h at 37 °C with 5% CO2. Cells were then co-transfected with SSTR wild-type or mutants and GloSensor plasmids. After 24 h of transfection, the cells were dissociated with TrypLE™ Express Enzyme (1X) (Thermo Fisher Scientific) and collected by centrifugation at 500 × g for 5 min. Then the collected cells were suspended in Hank’s balanced salt solution [HBSS (Thermo Fisher Scientific)] supplemented with […] (YEASEN), and then the suspension cells were seeded into 96-well plates with 90 μl/well. After incubating at room temperature for 40 min, 5 μM forskolin and ligands diluted in HBSS were added to each well and the plates were incubated at room temperature for 15 min. […] were measured using the Synergy H1 microplate reader (BioTek) and the data presented are means of at least three independent experiments.

C[C@@H](O)[C@@H]1NC(=O)[C@H](CCCCN)NC(=O)[C@@H](Cc2c[nH]c3ccccc23)NC(=O)[C@H](Cc2ccccc2)NC(=O)[C@@H](NC(=O)[C@H](N)Cc2ccccc2)CSSC[C@@H](C(=O)N[C@H](CO)[C@@H](C)O)NC1=O [octreotide]
Best-fit Bottom (D295A-1): -10.23 | Best-fit Span (D295A-1): 99.42 | Best-fit Top (D295A-1): 89.19 | LogEC50 (D295A-1): -8.381 | EC50 (D295A-1, read-out: EC50): 4.16 nM | Best-fit Bottom (D295A-2): 1.886 | Best-fit Span (D295A-2): 96.17 | Best-fit Top (D295A-2): 98.06 | LogEC50 (D295A-2): -8.514 | EC50 (D295A-2, read-out: EC50): 3.06 nM | Best-fit Span (D295A-3): 116.5 | Best-fit Top (D295A-3): 121.2 | LogEC50 (D295A-3): -8.224 | EC50 (D295A-3, read-out: EC50): 5.97 nM | Span (best-fit) (F208A-1): 78.86 | Span (best-fit) (F208A-2): 58.27 | Bottom (best-fit) (F265A-1): 0.9849 | LogEC50 (best-fit) (F265A-1): -7.854 | Span (best-fit) (F265A-1): 101.1 | Top (best-fit) (F265A-1): 102.1 | EC50 (F265A-1, read-out: EC50 (best-fit)): 14 nM | Bottom (best-fit) (F265A-2): 21.57 | LogEC50 (best-fit) (F265A-2): -8.682 | Span (best-fit) (F265A-2): 69.47 | Top (best-fit) (F265A-2): 91.04 | EC50 (F265A-2, read-out: EC50 (best-fit)): 2.08 nM | Bottom (best-fit) (F265A-3): 0.9849 | LogEC50 (best-fit) (F265A-3): -7.854 | Span (best-fit) (F265A-3): 101.1 | Top (best-fit) (F265A-3): 102.1 | Bottom (best-fit) (F272A-1): 2.117 | LogEC50 (best-fit) (F272A-1): -8.522 | Span (best-fit) (F272A-1): 53.6 | Top (best-fit) (F272A-1): 55.72 | EC50 (F272A-1, read-out: EC50 (best-fit)): 3 nM | Bottom (best-fit) (F272A-2): 11.48 | LogEC50 (best-fit) (F272A-2): -6.317 | Span (best-fit) (F272A-2): 89.48 | Top (best-fit) (F272A-2): 101 | EC50 (F272A-2, read-out: EC50 (best-fit)): 482 nM | Bottom (best-fit) (F272A-3): 14.59 | LogEC50 (best-fit) (F272A-3): -6.317 | Span (best-fit) (F272A-3): 113.7 | Top (best-fit) (F272A-3): 128.3 | Best-fit Bottom (F294A-1): 3.53 | Best-fit Span (F294A-1): 87.88 | Best-fit Top (F294A-1): 91.41 | LogEC50 (F294A-1): -6.677 | EC50 (F294A-1, read-out: EC50): 211 nM | Best-fit Bottom (F294A-2): 6.308 | Best-fit Span (F294A-2): 82.91 | Best-fit Top (F294A-2): 89.22 | LogEC50 (F294A-2): -6.828 | EC50 (F294A-2, read-out: EC50): 149 nM | Best-fit Bottom (F294A-3): 4.16 | Best-fit Span (F294A-3): 103.6 | Best-fit Top (F294A-3): 107.7 | LogEC50 (F294A-3): -6.677 | Emax (Gi signaling, I130A, earlier manuscript version quoted by reviewer, superseded): 91% | Emax (Gi signaling, Q102A, earlier manuscript version quoted by reviewer, superseded): 109% | Emax (Gi signaling, SSTR2 D122(3.32)A, detected at 10 μM, n=3): 12.04±1.83 %WT | Emax (Gi signaling, SSTR2 D295(7.36)A, n=3): 102.80±9.54 %WT | EC50 (Gi signaling, SSTR2 D295(7.36)A, n=3, read-out: EC50): 4.4 ± 8.48 nM | Emax (Gi signaling, SSTR2 F127(3.37)A, n=3): 108.70±0.91 %WT | EC50 (Gi signaling, SSTR2 F127(3.37)A, n=3, read-out: EC50): 1.93 nM | Emax (Gi signaling, SSTR2 F208(5.38)A, n=3): 96.46±2.20 %WT | EC50 (Gi signaling, SSTR2 F208(5.38)A, n=3, read-out: EC50): 6.42 ± 2.37 nM | Emax (Gi signaling, SSTR2 F265(6.44)A, n=3): 99.81±4.55 %WT | EC50 (Gi signaling, SSTR2 F265(6.44)A, n=3, read-out: EC50): 12.3 ± 5.46 nM | Emax (Gi signaling, SSTR2 F272A, n=3): 95.01±21.17 %WT | EC50 (Gi signaling, SSTR2 F272A, n=3, read-out: EC50): 322.3 ± 1.6 nM | Emax (Gi signaling, SSTR2 F294(7.35)A, n=3): 96.11±5.83 %WT | EC50 (Gi signaling, SSTR2 F294(7.35)A, n=3, read-out: EC50): 190 ± 2.07 nM | Emax (Gi signaling, SSTR2 I130(3.40)A, n=3): 101.10±5.08 %WT | EC50 (Gi signaling, SSTR2 I130(3.40)A, n=3, read-out: EC50): 11.6 ± 4.99 nM | Emax (Gi signaling, SSTR2 I195(45.52)A, n=3): 100.40±3.58 %WT | EC50 (Gi signaling, SSTR2 I195(45.52)A, n=3, read-out: EC50): 6.58 ± 1.1 nM | Emax (Gi signaling, SSTR2 I284ECL3A, n=3): 97.53±14.28 %WT | EC50 (Gi signaling, SSTR2 I284ECL3A, n=3, read-out: EC50): 1.91 ± 4.66 nM | Emax (Gi signaling, SSTR2 K291(7.32)A, n=3): 89.41±10.26 %WT | EC50 (Gi signaling, SSTR2 K291(7.32)A, n=3, read-out: EC50): 5.46 ± 1.06 nM | Emax (Gi signaling, SSTR2 L99(2.60)A, n=3): 92.36±6.12 %WT | EC50 (Gi signaling, SSTR2 L99(2.60)A, n=3, read-out: EC50): 1.25 nM | Emax (Gi signaling, SSTR2 L290(7.31)A, n=3): 103.50±7.16 %WT | Emax (Gi signaling, SSTR2 N276(6.55)A, n=3): 107.20±5.70 %WT | EC50 (Gi signaling, SSTR2 N276(6.55)A, n=3, read-out: EC50): 35.1 ± 8.45 nM | Emax (Gi signaling, SSTR2 P220(5.50)A, n=3): 95.86±14.17 %WT | EC50 (Gi signaling, SSTR2 P220(5.50)A, n=3, read-out: EC50): 3.37 ± 1.32 nM | Emax (Gi signaling, SSTR2 P286ECL3A, n=3): 102.40±5.34 %WT | EC50 (Gi signaling, SSTR2 P286ECL3A, n=3, read-out: EC50): 0.62 ± 1.18 nM | Emax (Gi signaling, SSTR2 Q102(2.63)A, n=3): 71.48±1.31 %WT | EC50 (Gi signaling, SSTR2 Q102(2.63)A, n=3, read-out: EC50): 66.8 ± 2.72 nM | Emax (Gi signaling, SSTR2 Q126(3.36)A, detected at 10 μM, n=3): 21.88±1.91 %WT | Emax (Gi signaling, SSTR2 S279(6.58)A, n=3): 101.70±5.61 %WT | EC50 (Gi signaling, SSTR2 S279(6.58)A, n=3, read-out: EC50): 1.17 ± 1.01 nM | Emax (Gi signaling, SSTR2 S285ECL3A, n=3): 87.52±6.00 %WT | EC50 (Gi signaling, SSTR2 S285ECL3A, n=3, read-out: EC50): 0.69 ± 1.18 nM | Emax (Gi signaling, SSTR2 T194(45.51)A, n=3): 91.51±3.38 %WT | EC50 (Gi signaling, SSTR2 T194(45.51)A, n=3, read-out: EC50): 48.5 ± 2.29 nM | Emax (Gi signaling, SSTR2 T287ECL3A, n=3): 98.50±5.26 %WT | EC50 (Gi signaling, SSTR2 T287ECL3A, n=3, read-out: EC50): 0.6 nM | Emax (Gi signaling, SSTR2 V103(2.64)A, n=3): 90.80±3.48 %WT | EC50 (Gi signaling, SSTR2 V103(2.64)A, n=3, read-out: EC50): 7.66 ± 2.51 nM | Emax (Gi signaling, SSTR2 W188ECL3A, n=3): 102.40±5.12 %WT | EC50 (Gi signaling, SSTR2 W188ECL3A, n=3, read-out: EC50): 0.32 nM | Emax (Gi signaling, SSTR2 W269(6.48)A, n=3): 99.58±2.56 %WT | EC50 (Gi signaling, SSTR2 W269(6.48)A, n=3, read-out: EC50): 0.89 ± 2.24 nM | Emax (Gi signaling, SSTR2 Y50(1.39)A, n=3): 104.70±0.48 %WT | EC50 (Gi signaling, SSTR2 Y50(1.39)A, n=3, read-out: EC50): 0.46 nM | Emax (Gi signaling, SSTR2 Y205(5.35)A, n=3): 112.90±25.77 %WT | EC50 (Gi signaling, SSTR2 Y205(5.35)A, n=3, read-out: EC50): 0.92 nM | Emax (Gi signaling, SSTR2 Y302(7.43)A, n=3): 79.09±10.74 %WT | EC50 (Gi signaling, SSTR2 Y302(7.43)A, n=3, read-out: EC50): 79 ± 2.7 nM | Bottom (best-fit value) (I284A-1, run 1): 8.872 | LogEC50 (best-fit value) (I284A-1, run 1): -8.868 | Span (best-fit value) (I284A-1, run 1): 107.4
